According to patent publication US20240294548A1, “TRICYCLIC SULTAMS AND SULFAMIDES AS ANTITUMOR AGENTS” (PELOTON THERAPEUTICS INC., priority 2021, published 2024):
Read-outs that look alike come from different tables or passages of the source.

Columns and labels:
[1] = test system: HCT116 human colorectal carcinoma cells; experiment: CellTiter-Glo assay (cell viability); type: cell-based; details: HCT-116, 72 h, read-out: CTG IC50
Protocol: HCT116 human colorectal carcinoma cells were used in these experiments. HCT116 cells were obtained from ATCC. CellTiter-Glo® Luminescent Cell Viability Assay Reagent was obtained from Promega.
About 3,000 cells were seeded into 96-well plate with 100 μL of media (DMEM supplemented with 10% FBS, 100 units penicillin, and […] streptomycin per mL) the day before the experiment. For compound treatment, the master plate was prepared as follows: 100× compound stocks were prepared in a 96-well plate by 1 to 3 serial dilutions of 0.5 mM DMSO stocks. Each master plate contained serial dilution of 8 compounds, including the control compound E7820. […] of 100× compound stock was added to each well of the assay plate to give final concentrations of […]. Each concentration was tested in triplicate. After 3 days, cell viability was determined using CellTiter-Glo Luminescent Cell Viability Assay Reagent following the manufacturer's recommended protocol. Briefly, […] of CellTiter-Glo reagent was added to each well of the assay plate and the contents were mixed for 3 minutes at 600 rpm on a shaker (Thermomixer R). The plate was immediately placed in a plate reader (Synergy 2) and the luminescence signal (0.5 second per well integration time) was determined. IC50 values were calculated using Dotmatics software.

[2] = biological target: T1, DCAF15 (DDA1-DDB1ΔB-DCAF15Δpro) (Homo sapiens, UniProt Q66K64, DEL276-383); experiment: DCAF15 displacement assay (displacement FRET, probe PT7795); type: binding; details: displacement of PT7795 (300 nM), compound 0.01 to 100 μM, 18 hours incubation; read-out: DCAF15 displacement IC50
T1 construct: made in house; host or cells: Sf9 (Bac-to-Bac baculovirus)
Text: (§1) Proteins used for the assays were as follows: Human DDA1 (UniProt:Q9BW61), DDB1 (UniPro: Q16531), and DCAF15 (UniProt: Q66K64) coding sequences were cloned into pFastBac1 vectors and were co-expressed in Sf9 cells using Bac-to-Bac baculovirus expression system (Thermo Fisher Scientific). The expression construct for DCAF15 includes a N-terminal His6-tag to facilitate the purification.
DCAF15 Displacement Assay (Displacement FRET KD)
Synthesis of the probe PT7795 is described in the article.
Binding of PT7795 to DDA1-DDB1AB-DCAF15Δpro was measured by the FRET signal between europium-labeled anti-His antibody (AD0205, Perkin Elmer) that is associated with His-tagged DCAF15 and ALX647 moiety in PT7795. […] After equilibrating for 2-3 hours at 4° C., the plate was removed from the incubator, briefly spun, then read on a Spark 10 (Tecan) at the excitation/emission wavelength of 340 nm/615 nm and 340 nm/665 nm.
Binding of compounds in this disclosure to DCAF15 was measured in a competition by the displacement of PT7795. The concentration of PT7795 was kept at 300 nM while the concentration of a compound was varied from 0.01 to 100 μM. The incubation time was increased to 18 hours for enhanced signal to noise level.
F=Fmin+(Fmax−Fmin)/(1+10^(logIC50−log[Compound])^n) (Equation 2)
The Kds can then be calculated from IC50s using Equation 3 (Cheng-Prusoff equation).

[3] = biological target: T2, DCAF15 RBM39 ternary complex (Homo sapiens, UniProt Q14498+Q66K64, DEL276-383); experiment: DCAF15 RBM39 complex formation assay (FRET); type: biochemical; details: FRET ratio, 20 nM DDB1DB/DCAF15, 50 nM RBM39 R1R2, overnight at 4° C.; read-out: DCAF15 RBM39 ternary complex EC50
T2 construct: Amino acids 150 to 331 of RBM39 were cloned into pGEX4T3; GST (from the pGEX4T3 vector, own knowledge) followed by a TEV cleavage site (N); made in house; host or cells: Sf9 baculovirus (DDB1ΔB/DCAF15); E. coli (RBM39 R1R2)
T2 sequence (Q66K64 with tags, fused parts or gaps DEL276-383): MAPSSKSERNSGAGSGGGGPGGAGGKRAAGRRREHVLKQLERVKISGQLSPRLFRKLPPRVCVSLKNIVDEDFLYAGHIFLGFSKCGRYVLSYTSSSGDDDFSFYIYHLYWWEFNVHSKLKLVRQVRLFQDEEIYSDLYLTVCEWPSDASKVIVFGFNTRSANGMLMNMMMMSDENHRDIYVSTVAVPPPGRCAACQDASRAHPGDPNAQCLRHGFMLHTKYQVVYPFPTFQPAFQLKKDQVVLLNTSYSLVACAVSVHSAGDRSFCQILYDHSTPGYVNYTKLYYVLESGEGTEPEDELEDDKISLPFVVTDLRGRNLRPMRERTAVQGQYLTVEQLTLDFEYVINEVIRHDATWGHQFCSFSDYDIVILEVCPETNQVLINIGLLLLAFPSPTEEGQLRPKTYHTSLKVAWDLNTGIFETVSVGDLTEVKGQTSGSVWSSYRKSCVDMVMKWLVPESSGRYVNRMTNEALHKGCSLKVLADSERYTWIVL
T2 sequence (Q14498 150-331, stated change not applied): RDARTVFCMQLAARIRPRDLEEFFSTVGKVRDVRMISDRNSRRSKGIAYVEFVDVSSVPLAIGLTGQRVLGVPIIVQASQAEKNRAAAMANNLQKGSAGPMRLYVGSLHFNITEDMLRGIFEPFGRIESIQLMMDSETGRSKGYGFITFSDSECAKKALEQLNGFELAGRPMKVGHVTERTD
Text: as §1
DCAF15 RBM39 Complex Formation Assay
LANCE Eu-W1024 Anti-6×His and SureLight Allophycocyanin-anti-FLAG antibodies were purchased from Perkin Elmer. Human DDB1DB and His-tagged DCAF15 were co-expressed in baculovirus/sf9 system. […] The His-tagged DCAF15 contains six histidine residues directly preceding the DCAF15 sequence without any linker. An RBM39 fragment containing RRM1 and RRM2 was expressed in E. coli.
A compound of the present disclosure in DMSO (2 μL) was transferred to a 384-well assay plate. Compound was added in 14 points, 3-fold serial dilution (1 μM to 0.6 pico molar) in DMSO. […] FRET assay buffer (25 mM HEPES, pH 7.5, 100 mM NaCl, […], 0.5 mM TCEP, 0.005% Tween-20, 0.2 nM Eu-W1024 Anti-6×His, 50 nM SureLight Allophycocyanin-anti-FLAG, 20 nM DDB1DB/DCAF15, 50 nM RBM39 R1R2) was added and the resulting solution was incubated overnight at 4° C. […] Low signal controls containing no compound and high signal controls containing 10 mM indisulam were measured for each plate.
EC50 values were calculated using Dotmatics template equation for 4-parameter fit.
Results are expressed as % formation using the following equation: […]

[4] = HCT116 cells, 3 days, CellTiter-Glo luminescence

| SMILES | IC50 [1, 4] [nM] | IC50 [2] [nM] | EC50 [3] [nM] | IC50 [1] [nM] |
| --- | --- | --- | --- | --- |
| O=S1(=O)Nc2c(cc(Cl)c3c(Cl)c[nH]c23)CN1Cc1ccc(Cl)cc1 [Compound 13, 6,7-dichloro-3-(4-chlorobenzyl)-1,3,4,9-tetrahydro-[1,2,6] thiadiazino[4,3-g]indole 2,2-dioxide] | 810 | 36100 | 6.2 |  |
| O=S1(=O)Nc2c(cc(Cl)c3c(Cl)c[nH]c23)CN1Cc1ccccc1Cl [Compound 14, 6,7-dichloro-3-(2-chlorobenzyl)-1,3,4,9-tetrahydro-[1,2,6] thiadiazino[4,3-g] indole 2,2-dioxide] | 218 | 2320 | 3.4 |  |
| CN1Cc2cc(Cl)c3c(Cl)c[nH]c3c2NS1(=O)=O [Compound 15, 6,7-dichloro-3-methyl-1,3,4,9-tetrahydro-[1,2,6]thiadiazino [4,3-g]indole 2,2-dioxide] | 726 | 14400 | 7.7 |  |
| O=S1(=O)Nc2c(cc(Cl)c3c(Cl)c[nH]c23)CC1Cc1ccccc1 (stereo not drawn) [Compound 16, 3-benzyl-6,7-dichloro-1,3,4,9-tetrahydro-[1,2] thiazino[4,3-g]indole 2,2-dioxide] | 259 | 1210 | 1 |  |
| O=c1ccc(CN2Cc3cc(Cl)c4c(Cl)c[nH]c4c3NS2(=O)=O)c[nH]1 [Compound 17, 5-((6,7-dichloro-2,2-dioxido-4,9-dihydro-[1,2,6]thiadiazino[4,3-g]indol-3(1H)-yl)methyl)pyridin-2(1H)-one] | 916 | 797 | 1.8 |  |
| O=S1(=O)Nc2c(cc(Cl)c3c(Cl)c[nH]c23)CN1CCCCF [Compound 18, 6,7-dichloro-3-(4-fluorobutyl)-1,3,4,9-tetrahydro-[1,2,6]thiadiazino[4,3-g]indole 2,2-dioxide] | 418 | 2680 | 0.9 |  |
| O=S1(=O)Nc2c(cc(Cl)c3c(Cl)c[nH]c23)CN1Cc1ccccn1 [Compound 19, 6,7-dichloro-3-(pyridin-2-ylmethyl)-1,3,4,9-tetrahydro-[1,2,6]thiadiazino [4,3-g]indole 2,2-dioxide] | 237 | 531 | 1.6 |  |
| O=S1(=O)Nc2c(cc(Cl)c3c(Cl)c[nH]c23)CN1Cc1ccncc1 [Compound 20, 6,7-dichloro-3-(pyridin-4-ylmethyl)-1,3,4,9-tetrahydro-[1,2,6] thiadiazino[4,3-g] indole 2,2-dioxide] | 155 | 1070 | 0.7 |  |
| COc1ccc(CN2Cc3cc(Cl)c4c(Cl)c[nH]c4c3NS2(=O)=O)cn1 [Compound 21, 6,7-dichloro-3-((6-methoxypyridin-3-yl)methyl)-1,3,4,9-tetrahydro-[1,2,6]thiadiazino [4,3-g]indole 2,2-dioxide] | 415 | 560 | 1.5 |  |
| CC(c1ccccc1)N1Cc2cc(Cl)c3c(Cl)c[nH]c3c2NS1(=O)=O (stereo not drawn) [Compound 23, 6,7-dichloro-3-(1-phenylethyl)-1,3,4,9-tetrahydro-[1,2,6] thiadiazino[4,3-g] indole 2,2-dioxide] | 591 | 9590 | 2.8 |  |
| O=S1(=O)Nc2c(cc(Cl)c3c(Cl)c[nH]c23)CN1CCO [Compound 24, 6,7-dichloro-3-(2-hydroxyethyl)-1,3,4,9-tetrahydro-[1,2,6] thiadiazino[4,3-g]indole 2,2-dioxide] | 799 | 8300 | 3.9 |  |
| O=S1(=O)Nc2c(cc(Cl)c3c(Cl)c[nH]c23)CN1CCCC(F)(F)C(F)(F)F [Compound 25, 6,7-dichloro-3-(4,4,5,5,5-pentafluoropentyl)-1,3,4,9-tetrahydro-[1,2,6] thiadiazino[4,3-g]indole 2,2-dioxide] | 992 | 52200 | 3.4 |  |
| O=S1(=O)Nc2c(cc(Cl)c3c(Cl)c[nH]c23)CN1Cc1cccnc1 [Compound 26, 6,7-dichloro-3-(pyridin-3-ylmethyl)-1,3,4,9-tetrahydro-[1,2,6] thiadiazino[4,3-g] indole 2,2-dioxide] | 130 | 507 | 1.2 |  |
| O=S1(=O)Nc2c(cc(Cl)c3c(Cl)c[nH]c23)CN1Cc1cccnc1Cl [Compound 27, 6,7-dichloro-3-((2-chloropyridin-3-yl)methyl)-1,3,4,9-tetrahydro-[1,2,6]thiadiazino [4,3-g]indole 2,2-dioxide] | 140 | 647 | 0.8 |  |
| CNCCN1Cc2cc(Cl)c3c(Cl)c[nH]c3c2NS1(=O)=O [Compound 28, 6,7-dichloro-3-(2-(methylamino)ethyl)-1,3,4,9-tetrahydro-[1,2,6] thiadiazino[4,3-g]indole 2,2-dioxide] | 501 | 28000 | 1.4 |  |
| O=S1(=O)NCc2nc(Cl)c3c(Cl)c[nH]c3c2N1 [Compound 31, 6,7-dichloro-1,3,4,9-tetrahydropyrrolo[2′,3′:4,5]pyrido[3,2-c][1,2,6]thiadiazine 2,2-dioxide] | 4510 | ≥ 100000 | 263 |  |
| O=S1(=O)Nc2c(cc(Cl)c3c(Cl)c[nH]c23)CN1CCCC(F)(F)F [Compound 32, 6,7-dichloro-3-(4,4,4-trifluorobutyl)-1,3,4,9-tetrahydro-[1,2,6] thiadiazino[4,3-g]indole 2,2-dioxide] | 269 | 4120 | 1.9 |  |
| O=S1(=O)Nc2c(cc(Cl)c3c(Cl)c[nH]c23)CN1Cc1cncnc1 [Compound 33, 6,7-dichloro-3-(pyrimidin-5-ylmethyl)-1,3,4,9-tetrahydro-[1,2,6]thiadiazino[4,3-g] indole 2,2-dioxide] | 162 | 530 | 2.3 |  |
| O=S1(=O)Nc2c(cc(Cl)c3c(Cl)c[nH]c23)CN1CC1COC1 [Compound 34, 6,7-dichloro-3-(oxetan-3-ylmethyl)-1,3,4,9-tetrahydro-[1,2,6]thiadiazino[4,3-g]indole 2,2-dioxide] |  | 689 | 1.8 | 126 |
| O=S1(=O)Nc2c(cc(Cl)c3c(Cl)c[nH]c23)CN1Cc1ccncc1Cl [Compound 35, 6,7-dichloro-3-((3-chloropyridin-4-yl)methyl)-1,3,4,9-tetrahydro-[1,2,6]thiadiazino [4,3-g]indole 2,2-dioxide] | 118 | 210 | 4 |  |
